From BindingDB's records for patent US20250136619 (Halda Therapeutics OPCO, 2025)

Molecular target: Tyrosine-protein kinase BTK (Homo sapiens, UniProt Q06187)
Assay: Assay for Binding Affinity to BTK
Method: Compounds were tested using a KdELECT assay. Kinase-tagged T7 phage strains were prepared in an E. coli host derived from the BL21 strain. E. coli were grown to log-phase and infected with T7 phage and incubated with shaking at 32° C. until lysis. The lysates were centrifuged and filtered to remove cell debris. The remaining kinases were produced in HEK-293 cells and subsequently tagged with DNA for qPCR detection. Streptavidin-coated magnetic beads were treated with biotinylated small molecule ligands for 30 minutes at room temperature to generate affinity resins for kinase assays. The liganded beads were blocked with excess biotin and washed with blocking buffer (SeaBlock (Pierce), 1% BSA, 0.05% Tween 20, 1 mM DTT) to remove unbound ligand and to reduce non-specific binding. Binding reactions were assembled by combining kinases, liganded affinity beads, and test compounds in 1× binding buffer (20% SeaBlock, 0.17×PBS, 0.05% Tween 20, 6 mM DTT). Test compounds were prepared as 111X stocks in 100% DMSO. Kd values were determined using an 11-point 3-fold compound dilution series with three DMSO control points. All compounds for Kd measurements are distributed by acoustic transfer (non-contact dispensing) in 100% DMSO. The compounds were then diluted directly into the assays such that the final concentration of DMSO was 0.9%. […] The kinase concentration in the eluates was measured by qPCR.

Tyrosine-protein kinase BTK, sequence (Q06187 whole entry): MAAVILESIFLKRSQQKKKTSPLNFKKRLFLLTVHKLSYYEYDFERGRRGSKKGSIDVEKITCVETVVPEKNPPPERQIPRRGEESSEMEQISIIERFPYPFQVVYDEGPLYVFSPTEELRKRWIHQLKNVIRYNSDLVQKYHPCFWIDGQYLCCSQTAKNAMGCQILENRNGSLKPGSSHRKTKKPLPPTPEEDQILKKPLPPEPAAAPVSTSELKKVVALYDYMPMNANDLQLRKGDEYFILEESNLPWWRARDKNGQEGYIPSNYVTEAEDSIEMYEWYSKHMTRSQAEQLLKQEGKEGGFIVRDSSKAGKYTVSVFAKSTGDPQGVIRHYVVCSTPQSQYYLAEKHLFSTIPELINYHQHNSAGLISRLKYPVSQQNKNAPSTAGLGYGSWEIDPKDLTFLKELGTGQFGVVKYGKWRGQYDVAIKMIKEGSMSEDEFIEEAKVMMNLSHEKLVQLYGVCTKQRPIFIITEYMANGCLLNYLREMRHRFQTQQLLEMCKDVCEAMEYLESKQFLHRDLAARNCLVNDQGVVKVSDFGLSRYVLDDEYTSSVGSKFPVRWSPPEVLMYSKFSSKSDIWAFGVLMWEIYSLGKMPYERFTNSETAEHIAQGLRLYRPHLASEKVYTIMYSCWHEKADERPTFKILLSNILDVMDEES

Kd: < 50 nM
Compound: CCc1cnn2c(NCc3ccc(OCCOCCOCCOCCOCCOCCOCCOCCOCCOC/C=C/C(=O)N4CCC[C@@H](n5nc(-c6ccc(Oc7ccccc7)cc6)c6c(N)ncnc65)C4)nc3)cc(N3CCCC[C@H]3CCO)nc12 [US20250136619, Compound I-47]
